Experiment [1] deals with T1, Prostaglandin D2 receptor 2 (Homo sapiens) (UniProt Q9Y5Y4).
T1 sequence (whole entry): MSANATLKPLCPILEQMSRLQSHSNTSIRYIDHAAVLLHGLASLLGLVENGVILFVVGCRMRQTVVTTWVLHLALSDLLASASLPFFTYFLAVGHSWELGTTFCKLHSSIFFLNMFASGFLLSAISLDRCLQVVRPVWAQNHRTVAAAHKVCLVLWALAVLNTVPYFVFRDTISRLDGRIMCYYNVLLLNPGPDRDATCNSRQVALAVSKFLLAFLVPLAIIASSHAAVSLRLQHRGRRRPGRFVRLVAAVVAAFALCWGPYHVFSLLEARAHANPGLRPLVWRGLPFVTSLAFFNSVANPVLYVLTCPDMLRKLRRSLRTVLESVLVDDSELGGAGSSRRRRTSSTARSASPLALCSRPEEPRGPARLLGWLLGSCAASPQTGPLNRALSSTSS
In words: Antagonist activity at human CRTH2 receptor expressed in HEK385-7 cells assessed as inhibition of PGD2-mediated beta-arrestin translocation preincubated 5 mins prior to PGD2 challenge measured after 5 mins by BRET assay relative to control. Type of experiment: functional, cell-based. (In general: In BRET a luciferase serves as donor, and the signal depends on an acceptor being close.)

The target of experiment [2] is T2, Prostaglandin D2 receptor 2 (Homo sapiens, UniProt Q9Y5Y4).
T2 sequence (Q9Y5Y4 whole entry): T1 sequence (whole entry)
The experiment can be described thus: Antagonist activity at human CRTH2 receptor expressed in HEK385-7 cells assessed as inhibition of PGD2-mediated beta-arrestin translocation preincubated 5 mins prior to PGD2 challenge measured after 5 mins by BRET assay. Type of experiment: functional, cell-based.

Experiment [3] concerns the target T2, Prostaglandin D2 receptor 2. The experiment can be described thus: Displacement of [3H]PGD2 from human CRTH2 receptor expressed in HEK385-7 cells. Type of experiment: cell-based. (In a radioligand displacement assay an active substance lowers the binding of a labelled ligand.)
Experiment [4] has as its target T3, Prostaglandin D2 receptor 2 (Mus musculus, UniProt Q9Z2J6).
T3 sequence (Q9Z2J6 whole entry): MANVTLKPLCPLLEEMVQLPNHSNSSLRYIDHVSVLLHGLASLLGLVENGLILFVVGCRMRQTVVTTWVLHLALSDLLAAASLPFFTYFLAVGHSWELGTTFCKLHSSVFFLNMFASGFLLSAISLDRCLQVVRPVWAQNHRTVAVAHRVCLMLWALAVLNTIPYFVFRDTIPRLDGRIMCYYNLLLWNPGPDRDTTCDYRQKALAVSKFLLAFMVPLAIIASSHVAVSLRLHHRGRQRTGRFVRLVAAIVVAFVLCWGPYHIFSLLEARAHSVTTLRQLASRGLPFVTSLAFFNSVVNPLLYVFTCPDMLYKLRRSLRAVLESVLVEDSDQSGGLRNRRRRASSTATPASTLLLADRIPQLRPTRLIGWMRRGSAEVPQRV
In words: Inhibition of mouse CRTH2 receptor.

The next experiment addresses T4, Thromboxane A2 receptor (Homo sapiens, UniProt P21731).
T4 sequence (P21731 whole entry): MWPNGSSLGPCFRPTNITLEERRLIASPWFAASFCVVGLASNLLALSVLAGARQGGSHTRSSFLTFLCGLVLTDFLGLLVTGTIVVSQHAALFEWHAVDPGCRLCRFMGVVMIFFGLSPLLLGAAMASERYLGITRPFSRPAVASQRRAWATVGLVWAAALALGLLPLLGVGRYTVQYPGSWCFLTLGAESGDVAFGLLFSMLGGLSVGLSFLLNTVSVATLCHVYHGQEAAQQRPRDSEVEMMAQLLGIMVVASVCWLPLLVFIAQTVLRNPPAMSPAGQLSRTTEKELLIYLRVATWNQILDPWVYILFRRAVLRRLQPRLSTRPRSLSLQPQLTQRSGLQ
In words: Inhibition of thromboxane A2 receptor.

Experiment [5] addresses T5, Prostaglandin D2 receptor (Mus musculus, UniProt P70263).
T5 sequence (P70263 whole entry): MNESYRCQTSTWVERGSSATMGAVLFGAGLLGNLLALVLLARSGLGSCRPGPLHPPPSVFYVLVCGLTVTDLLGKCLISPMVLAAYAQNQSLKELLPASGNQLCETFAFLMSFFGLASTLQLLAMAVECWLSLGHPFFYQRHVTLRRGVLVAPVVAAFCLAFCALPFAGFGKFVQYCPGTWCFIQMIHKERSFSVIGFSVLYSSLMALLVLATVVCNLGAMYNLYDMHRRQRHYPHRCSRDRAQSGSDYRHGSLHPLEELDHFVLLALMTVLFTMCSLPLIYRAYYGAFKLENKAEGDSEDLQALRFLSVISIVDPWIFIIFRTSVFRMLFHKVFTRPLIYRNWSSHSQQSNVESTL
In words: Inhibition of mouse DP receptor.

The target of experiment [6] is T6, Prostaglandin D2 receptor 2 (Rattus norvegicus, UniProt Q6XKD3).
T6 sequence (Q6XKD3 whole entry): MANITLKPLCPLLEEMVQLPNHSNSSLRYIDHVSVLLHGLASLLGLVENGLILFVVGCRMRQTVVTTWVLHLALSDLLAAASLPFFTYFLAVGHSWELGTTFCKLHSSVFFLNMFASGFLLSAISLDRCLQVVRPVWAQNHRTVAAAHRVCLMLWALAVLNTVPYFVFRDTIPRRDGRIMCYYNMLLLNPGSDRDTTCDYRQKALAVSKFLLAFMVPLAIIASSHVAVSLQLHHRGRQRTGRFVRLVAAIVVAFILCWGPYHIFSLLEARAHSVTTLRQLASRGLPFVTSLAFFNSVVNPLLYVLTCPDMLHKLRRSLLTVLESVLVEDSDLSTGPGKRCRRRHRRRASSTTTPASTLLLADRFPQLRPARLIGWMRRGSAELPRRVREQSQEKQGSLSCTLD
The experiment can be described thus: Inhibition of rat CRTH2 receptor.

Experiment [7] deals with T7, Prostaglandin D2 receptor (Homo sapiens, UniProt Q13258).
T7 sequence (Q13258 whole entry): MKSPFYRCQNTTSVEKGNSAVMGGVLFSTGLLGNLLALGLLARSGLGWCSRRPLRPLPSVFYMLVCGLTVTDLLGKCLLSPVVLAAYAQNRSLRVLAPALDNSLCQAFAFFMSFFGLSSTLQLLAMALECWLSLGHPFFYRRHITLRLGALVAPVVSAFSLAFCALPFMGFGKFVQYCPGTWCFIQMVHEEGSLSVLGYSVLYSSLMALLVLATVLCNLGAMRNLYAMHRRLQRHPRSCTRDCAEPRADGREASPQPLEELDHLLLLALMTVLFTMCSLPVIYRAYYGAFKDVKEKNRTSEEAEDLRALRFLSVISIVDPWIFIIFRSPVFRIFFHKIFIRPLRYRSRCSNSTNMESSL
The experiment can be described thus: Inhibition of human DP receptor.

The target of experiment [8] is T8, Chemoattractant receptor-homologous molecule expressed on Th2 cells (Cavia porcellus, UniProt Q56D28).
T8 sequence (Q56D28 whole entry): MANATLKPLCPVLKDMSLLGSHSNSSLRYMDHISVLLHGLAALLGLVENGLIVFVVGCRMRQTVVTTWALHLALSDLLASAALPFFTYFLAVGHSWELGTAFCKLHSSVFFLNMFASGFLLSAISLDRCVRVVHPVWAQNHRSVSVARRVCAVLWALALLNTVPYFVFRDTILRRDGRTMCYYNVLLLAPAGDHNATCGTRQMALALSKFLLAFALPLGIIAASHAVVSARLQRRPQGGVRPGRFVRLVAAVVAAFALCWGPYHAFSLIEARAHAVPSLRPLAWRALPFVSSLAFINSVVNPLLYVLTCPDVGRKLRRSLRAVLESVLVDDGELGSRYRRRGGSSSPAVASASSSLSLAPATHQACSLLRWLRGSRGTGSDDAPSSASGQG
The experiment can be described thus: Inhibition of guinea pig CRTH2 receptor.

Experiment [9] can be described thus: Inhibition of guinea pig DP receptor. Details: species or system Cavia porcellus.

As a reminder, the IC50 is the concentration needed to halve the response being measured. In the case of `O=C(O)Cc1sc(N(c2ccccc2)c2ccccc2)nc1-c1cccc(F)c1`, in experiment [1], the Efficacy was more than 80%. The IC50 in [2] is 79 nM; in experiment [3], 4.4 nM.

For the compound `O=C(O)Cc1sc(N(c2ccccc2)c2ccccc2)nc1-c1ccc(Cl)cc1`, in [1], the Efficacy was more than 80%. The IC50 was determined as 72 nM in [2] and 18 nM in [3].

In the case of `CS(=O)(=O)c1ccc(N(c2ccccc2)c2nc(-c3ccc(F)cc3)c(CC(=O)O)s2)cc1`, the Efficacy in experiment [1] was more than 30%. Moreover, the half-maximal inhibitory concentration (IC50) in experiment [2] was determined as 2000 nM; in [3], 190 nM.

On to `O=C(O)CCc1sc(C(c2ccc(F)cc2)c2ccc(F)cc2)nc1-c1cccc(F)c1`, for which the Efficacy in [1] was more than 80%. Besides, the half-maximal inhibitory concentration (IC50) in experiment [2] stood at 1000 nM; in experiment [3], 75 nM.

For the compound `O=C(O)CCc1cnc(C(c2ccc(F)cc2)c2ccc(F)cc2)nc1-c1cccc(F)c1`, the Efficacy in experiment [1] was more than 80%. Also, the IC50 in experiment [2] is more than 100000 nM; in experiment [3] it was 2070 nM.

For the compound `COc1ccc(N(c2ccc(OC)cc2)c2nc(-c3cccc(F)c3)c(CC(=O)O)s2)cc1`, in [1], the Efficacy was more than 80%. For the same compound, the IC50 in experiment [2] was found to be 260 nM; in [3], 15 nM.

Consider `O=C(O)Cc1sc(N(c2ccc(F)cc2)c2ccc(F)cc2)nc1-c1ccc(F)cc1`, for which the Efficacy in [1] is more than 80%. Also, the IC50 came to 240 nM in experiment [2] and 23 nM in experiment [3].

As for `COc1ccc(N(c2ccc(OC)cc2)c2ncc(CC(=O)O)c(-c3cccc(F)c3)n2)cc1`, the Efficacy in experiment [1] was more than 80%. The IC50 in experiment [2] is more than 100000 nM; in experiment [3] it was 2790 nM.

In the case of `O=C(O)Cc1sc(N(c2ccccc2)c2cccnc2)nc1-c1ccc(F)cc1`, the Efficacy in [1] was more than 30%. Also, the values for the IC50 in experiment [2] and in [3] were 1500 nM and 43 nM, respectively.

For `O=C(O)COc1sc(C(c2ccc(F)cc2)c2ccc(F)cc2)nc1-c1cccc(F)c1`, the Efficacy in experiment [1] was more than 80%. In addition, the IC50 in [2] amounted to 200 nM; in [3], 83 nM.

On to `N#Cc1ccc(N(c2ccccc2)c2nc(-c3ccc(F)cc3)c(CC(=O)O)s2)cc1`, for which, in experiment [1], the Efficacy was more than 55%. Also, the results for the IC50 in experiment [2] and in [3] were 460 nM and 84 nM, respectively.

On to `CC(c1ccccc1)(c1ccccc1)c1nc(-c2ccc(F)cc2)c(CC(=O)O)s1`, for which, in [1], the Efficacy is more than 80%. Further, the IC50 in experiment [2] was 85 nM; in experiment [3], 7.9 nM.

On to `O=C(O)Cc1cnc(C(c2ccc(F)cc2)c2ccc(F)cc2)nc1-c1cccc(F)c1`, for which the IC50 in experiment [4] stood at 3.4 nM; in [2], 12 nM; on Thromboxane A2 receptor it was 31000 nM; in [5] it was 5900 nM; in experiment [6], 7.5 nM; in [3], 1.9 nM. Besides, the figures for the IC50 in [7], in experiment [8] and in [9] were 8500 nM, 29 nM and more than 100000 nM, respectively. For the same compound, in experiment [1], the Efficacy is more than 80%.

Consider `O=C(O)Cc1sc(N(c2ccccc2)c2ccccc2)nc1-c1ccc(F)cc1`, for which, in experiment [1], the Efficacy is more than 80%. Further, the IC50 worked out at 98 nM in experiment [2] and 15 nM in experiment [3].

With `O=C(O)Cc1cnc(N(c2ccc(F)cc2)c2ccc(F)cc2)nc1-c1cccc(F)c1`, the Efficacy in experiment [1] was more than 80%. The 50% inhibitory concentration (IC50) in [2] is more than 100000 nM; in [3] it was 1260 nM.

As to `O=C(O)Cc1[nH]c(C(c2ccc(F)cc2)c2ccc(F)cc2)nc1-c1ccc(F)cc1`, the Efficacy in [1] is more than 80%. Moreover, the IC50 in experiment [2] is more than 100000 nM; in experiment [3], 9140 nM.

For the origin of these results see ChEMBL document CHEMBL1154943, “Exploration of SAR features by modifications of thiazoleacetic acids as CRTH2 antagonists” (Bioorg Med Chem Lett, 2010).
